The source of these data is paper PMC9610855, “Valorisation of the Inhibitory Potential of Fresh and Dried Fruit Extracts of Prunus spinosa L. towards Carbohydrate Hydrolysing Enzymes, Protein Glycation, Multiple Oxidants and Oxidative Stress-Induced Changes in Human Plasma Constituents” (Pharmaceuticals, 2022).

A word on the IC50: it is the midpoint of a concentration-inhibition curve. Higher therefore signals a need for much substance.

For one assay, the target named is α-glucosidase. Kind of assay: α-glucosidase inhibition assay (p-NPG hydrolysis, spectrophotometric). The class given is biochemical. Conditions: mean ± SD (n = 3). How it is done: The inhibition of α-glucosidase was evaluated according to the spectrophotometric method reported by Ma et al. with slight modifications. The enzyme activity measurement was based on the p-nitrophenyl-α-D-glucopyranoside (p-NPG) hydrolysis. In brief, 150 µL of a phosphate buffer (0.1 M, pH 6.9) solution of an extract or standard was mixed with the enzyme (0.43 U/mL, 50 µL) and pre-incubated for 15 min at 37 °C. Next, a 0.7 mM p-NPG solution in the buffer (50 µL) was added, and after 15 min of incubation, the reaction was stopped by adding Na2CO3 (0.2 M, 50 µL). Finally, the absorbance was read at 405 nm in a microplate reader. […] The inhibitory potential of the analytes towards α-glucosidase was expressed as a half inhibitory concentration (IC50), calculated from concentration-inhibition curves.

A short description of another assay: NO^• scavenging. Conditions: mean ± SD of three replicates. As to the method: (§1) The scavenging efficiency of P. spinosa fruit extracts/fractions towards various ROS (O2^•−, HO^•, H2O2, HOCl, and NO^•) was tested using appropriate fluorimetric and spectrophotometric methods as described previously. Ascorbic acid and Trolox® served as positive controls. The results were expressed as half scavenging concentration (SC50) values, estimated using concentration-scavenging curves.

The nature of the next assay: HOCl scavenging. Conditions: mean ± SD of three replicates. As to the method:
as §1

Another assay can be described thus: O2^•− scavenging. Conditions: mean ± SD of three replicates. As to the method:
as §1

The next assay can be described thus: H2O2 scavenging. Conditions: mean ± SD of three replicates. How it is done: as §1
Another assay in a line: HO^• scavenging. As to conditions: mean ± SD of three replicates. As to the method:
as §1

Another assay relates to human neutrophils. Further details: method as in PMID 35630778. As to conditions: 50 μM; cited from earlier work.
In assay [1] the test system is AGEs formation (protein glycation, fructose-BSA). Kind of assay: inhibition of AGEs formation, fructose-bovine serum albumin (BSA) test system. Conditions: mean ± SD (n = 3). How it is done: The impact of the extracts/fractions on protein glycation was evaluated in the fructose-bovine serum albumin (BSA) test system with aminoguanidine as a positive control according to the fluorimetric method of Starowicz and Zieliński, modified by Rutkowska et al.. The fluorescence was measured at 37 °C in a microplate reader at 355 nm and 420 nm for excitation and emission, respectively. The results were reported as half inhibitory concentration (IC50) values, estimated using concentration-inhibition curves.

The target in a further assay is T1, α-amylase (Sus scrofa, UniProt P00690).
T1 construct: pancreatin from porcine pancreas; purchased Sigma-Aldrich; host or cells: porcine pancreas extract (pancreatin)
T1 sequence (P00690 16-511): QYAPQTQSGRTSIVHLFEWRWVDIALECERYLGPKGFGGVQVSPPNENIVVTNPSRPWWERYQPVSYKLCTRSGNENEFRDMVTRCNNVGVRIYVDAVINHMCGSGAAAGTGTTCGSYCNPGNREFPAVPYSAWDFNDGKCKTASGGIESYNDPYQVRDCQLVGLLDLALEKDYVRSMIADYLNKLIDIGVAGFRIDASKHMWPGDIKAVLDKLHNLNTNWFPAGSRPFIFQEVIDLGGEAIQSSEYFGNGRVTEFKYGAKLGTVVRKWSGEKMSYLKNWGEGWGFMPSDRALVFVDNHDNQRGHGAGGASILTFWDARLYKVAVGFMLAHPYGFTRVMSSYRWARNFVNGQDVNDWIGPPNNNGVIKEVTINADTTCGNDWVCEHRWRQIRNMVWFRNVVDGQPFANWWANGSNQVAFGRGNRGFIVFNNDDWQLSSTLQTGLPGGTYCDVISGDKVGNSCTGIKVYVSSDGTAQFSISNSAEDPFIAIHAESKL
Kind of assay: α-amylase inhibition assay (EnzChek Ultra Amylase Assay Kit, fluorometric). The class given is biochemical. As to conditions: mean ± SD (n = 3). How it is done: The inhibitory activity of the analytes towards α-amylase was determined fluorometrically according to Truba et al. using an EnzChek™ Ultra Amylase Assay Kit. The test was based on measuring products formed after the enzymatically catalysed hydrolysis of the corn starch substrate DQTM (labeled with the fluorescent dye BODIPY® FL). The fluorescence of the hydrolysate was read at 37 °C in a microplate reader at 485 nm and 535 nm for excitation and emission, respectively. […] The inhibitory potential of the analytes towards α-amylase was expressed as a half inhibitory concentration (IC50), calculated from concentration-inhibition curves.

The subject of assay [2] is human plasma lipids (TBARS). Kind of assay: lipid peroxidation (TBARS) in human plasma exposed to ONOO^−. As to conditions: 5 μg/mL, compared with the other standard polyphenols. How it is done: Therefore, to check the potential preventive effects of P. spinosa fruit extracts against oxidative and nitrative injury of biomolecules, an experimental model of human blood plasma exposed to oxidative stress induced by ONOO^− (100–150 μM; achievable locally in vivo, e.g., in inflamed blood vessels) was applied. The process was monitored by measuring the oxidative stress biomarkers, including the products of protein nitration (3-nitrotyrosine, 3-NT), lipid peroxidation (thiobarbituric acid reactive substances, TBARS), as well as the total antioxidant capacity of plasma (NEAC). The extracts and fractions from fresh sloes were selected for the study due to their high ability to inhibit glycolytic enzymes, potent anti-glycation activity, and significant ROS/RNS-scavenging properties. […] The influence on the levels of oxidative stress biomarkers in plasma was evaluated using the appropriate immunoenzymatic and spectrophotometric methods. […] The results were calculated using the standard curve of nitro-fibrinogen (3-NT-Fg) and expressed as 3-NT-Fg equivalents (nmol/mg of plasma proteins). The TBARS levels of plasma lipids were determined spectrophotometrically and calculated in nmol/mL of plasma. The impact on the NEAC value was measured using the FRAP assay, with the results calculated from the standard curve of ferrous sulphate and expressed in mM of Fe^2+ equivalents.

For the compound `O=Cc1ccc(CO)o1` [5-Hydroxymethylfurfural (HMF), 5-hydroxymethylfurfural], the “α-Glucosidase IC50” value on α-glucosidase was “** (inactive up to 1000 µg/mL)”. For the same compound, the “Scavenging activity (SC50) NO^•” value in “NO^• scavenging” was “** (inactive up to a concentration of 500 µg/mL)”. Moreover, the “Scavenging activity (SC50) HOCl” value in the assay “HOCl scavenging” is “** (inactive up to a concentration of 500 µg/mL)”. Besides, the “Scavenging activity (SC50) O2^•−” value in “O2^•− scavenging” is “** (inactive up to a concentration of 500 µg/mL)”. Besides, the “Scavenging activity (SC50) H2O2” value in the assay “H2O2 scavenging” is “*** (inactive up to 1500 µg/mL)”. Besides, in the assay “HO^• scavenging”, the “Scavenging activity (SC50) HO^•” value was “*** (inactive up to 1500 µg/mL)”. Besides, the “downregulation (reduction) of the ROS level in human neutrophils” value in the assay with human neutrophils is 15%.
For the compound `N=C(N)NN` [Aminoguanidine, aminoguanidine], the “AGEs Formation IC50” value in assay [1] is given as 78.89 ± 4.95 ^C µg/mL.
As for `O=C1O[C@H]([C@@H](O)CO)C(O)=C1O` [Ascorbic acid, ascorbic acid], the “Scavenging activity (SC50) NO^•” value in the assay “NO^• scavenging” is on record as 0.59 ± 0.04 ^A µg/mL. Also, in “HOCl scavenging”, the “Scavenging activity (SC50) HOCl” value is 6.32 ± 0.07 ^A µg/mL. Moreover, the “Scavenging activity (SC50) O2^•−” value in the assay “O2^•− scavenging” is 5.28 ± 0.25 ^A µg/mL. Further, the “Scavenging activity (SC50) H2O2” value in the assay “H2O2 scavenging” is 0.014 ± 0.001 ^A,B mg/mL. Besides, the “Scavenging activity (SC50) HO^•” value in “HO^• scavenging” is listed as 0.14 ± 0.005 ^B,C mg/mL.
`O=C(/C=C/c1ccc(O)c(O)c1)O[C@@H]1C[C@](O)(C(=O)O)C[C@@H](O)[C@H]1O` [Chlorogenic acid, 5-O-caffeoylquinic acid]: the midpoint of inhibition on α-amylase, the IC50, lay at 229 µM. In addition, the “AGEs Formation IC50” value in [1] is 7.07 ± 0.74 ^A µg/mL.
Turning to `OC[C@H]1O[C@@H](Oc2cc3c(O)cc(O)cc3[o+]c2-c2ccc(O)c(O)c2)[C@H](O)[C@@H](O)[C@@H]1O` [Cyanidin 3-O-glucoside, cyanidin 3-O-β-D-glucopyranoside], on α-glucosidase, the “α-Glucosidase IC50” value was 635.13 ± 34.43 ^H µg/mL. Also, at α-amylase, the “α-Amylase IC50” value is 31.28 ± 1.66 ^B µg/mL. In addition, the “AGEs Formation IC50” value in assay [1] is listed as 10.90 ± 0.85 ^A µg/mL. In “NO^• scavenging”, the “Scavenging activity (SC50) NO^•” value is recorded as 1.40 ± 0.09 ^B µg/mL. The “Scavenging activity (SC50) HOCl” value in “HOCl scavenging” is given as 5.62 ± 0.11 ^A µg/mL. The “Scavenging activity (SC50) O2^•−” value in “O2^•− scavenging” was 10.11 ± 0.33 ^A µg/mL. The “Scavenging activity (SC50) H2O2” value in “H2O2 scavenging” is recorded as 0.012 ± 0.001 ^A,B mg/mL. Besides, the “Scavenging activity (SC50) HO^•” value in the assay “HO^• scavenging” is 0.17 ± 0.002 ^C mg/mL. Further, the “activity of model polyphenol in the TBARS test” value in assay [2] is “especially active”.
For `O=c1c(O[C@@H]2O[C@H](CO)[C@@H](O)[C@H](O)[C@H]2O)c(-c2ccc(O)c(O)c2)oc2cc(O)cc(O)c12` [Quercetin 3-O-glucoside (isoquercitrin), quercetin 3-O-β-D-glucopyranoside], the “α-Glucosidase IC50” value at α-glucosidase is 209.64 ± 5.64 ^G µg/mL. Besides, the “AGEs Formation IC50” value in assay [1] is 3.09 ± 0.17 ^A µg/mL.
Consider `O=c1c(O)c(-c2ccc(O)c(O)c2)oc2cc(O)cc(O)c12` [Quercetin, quercetin], for which the “Scavenging activity (SC50) NO^•” value in “NO^• scavenging” is listed as 0.48 ± 0.03 ^A µg/mL. Further, the “Scavenging activity (SC50) HOCl” value in the assay “HOCl scavenging” is reported as 2.08 ± 0.14 ^A µg/mL. Further, the “Scavenging activity (SC50) O2^•−” value in the assay “O2^•− scavenging” was 7.89 ± 0.24 ^A µg/mL. Also, the “Scavenging activity (SC50) H2O2” value in the assay “H2O2 scavenging” is on record as 0.008 ± 0.001 ^A mg/mL. The “Scavenging activity (SC50) HO^•” value in “HO^• scavenging” is reported as 0.05 ± 0.002 ^A mg/mL. The “downregulation (reduction) of the ROS level in human neutrophils” value in the assay with human neutrophils is on record as 96%.
As to `Cc1c(C)c2c(c(C)c1O)CCC(C)(C(=O)O)O2` (stereo not shown) [Trolox], in “NO^• scavenging”, the “Scavenging activity (SC50) NO^•” value is reported as 0.59 ± 0.02 ^A µg/mL. The “Scavenging activity (SC50) HOCl” value in “HOCl scavenging” was 21.49 ± 1.21 ^C µg/mL. The “Scavenging activity (SC50) O2^•−” value in “O2^•− scavenging” is listed as 135.33 ± 5.59 ^F µg/mL. The “Scavenging activity (SC50) H2O2” value in “H2O2 scavenging” is 0.020 ± 0.001 ^B mg/mL. In “HO^• scavenging”, the “Scavenging activity (SC50) HO^•” value is on record as 0.13 ± 0.003 ^B,C mg/mL.
